Measurements from PMC8732799 (Journal of Natural Medicines, 2021).
Each block holds one compound with its values, some of them ahead of it.

How the values were obtained:
CYP2C8 [1] = assay: CYP2C8 mRNA expression in human cryopreserved hepatocytes (quantitative PCR); conditions: 24 h, 1, 3 and 10 µM
Method: (§1) Plateable and interaction-qualified cryopreserved human hepatocytes (Lonza, Walkersville, MD, USA) were thawed in a hepatocyte thawing medium (Lonza) and then seeded at 5 × 10^4 cells per well in collagen-coated 96-well plates (Corning, Corning, NY, USA) with hepatocyte plating medium (Lonza). After 1 h of incubation with 5% CO2 under saturated humidity at 37 °C, the medium was replaced with fresh plating medium. After 4 h of seeding, the media were replaced with maintenance medium (Lonza) containing Matrigel (0.3 mg/ml).
(§2) After removing the medium containing Matrigel from the cells, the cells were treated with each test compound prepared in a maintenance medium (1, 3, and 10 µM). Rifampicin, a well-known CYP2C8 and CYP3A4 inducer, was used as a positive control and treated under the same conditions. […] To obtain the samples to evaluate mRNA levels, the cells were collected 24 h after drug treatment (n = 3 per test compound). […] The concentration of DMSO in the maintenance medium was 0.1%. A cell viability assay using CellTiter-Glo (Promega, Madison, WI, USA) was used to ensure the absence of cell toxicity during treatment with each compound.
RNA isolation and cDNA synthesis were carried out using the Superprep II Cell Lysis & RT Kit (Toyobo, Osaka, Japan) according to the manufacturer’s protocol. […] Data are expressed as fold-changes to the vehicle control.

CYP2C8 [2] = assay: Metabolic activity of paclitaxel in human cryopreserved hepatocytes: 6α-hydroxypaclitaxel production; conditions: 72 h treatment at 1–10 µM, then paclitaxel 10 µM 60 min
Method: as §1, §2

CYP2C8 [3] = biological target: T1, CYP2C8 (Homo sapiens, UniProt P10632); assay: Inhibition of paclitaxel metabolism in human liver microsome fraction: 6α-hydroxypaclitaxel production; conditions: human liver microsomes
T1 sequence (P10632 1-490): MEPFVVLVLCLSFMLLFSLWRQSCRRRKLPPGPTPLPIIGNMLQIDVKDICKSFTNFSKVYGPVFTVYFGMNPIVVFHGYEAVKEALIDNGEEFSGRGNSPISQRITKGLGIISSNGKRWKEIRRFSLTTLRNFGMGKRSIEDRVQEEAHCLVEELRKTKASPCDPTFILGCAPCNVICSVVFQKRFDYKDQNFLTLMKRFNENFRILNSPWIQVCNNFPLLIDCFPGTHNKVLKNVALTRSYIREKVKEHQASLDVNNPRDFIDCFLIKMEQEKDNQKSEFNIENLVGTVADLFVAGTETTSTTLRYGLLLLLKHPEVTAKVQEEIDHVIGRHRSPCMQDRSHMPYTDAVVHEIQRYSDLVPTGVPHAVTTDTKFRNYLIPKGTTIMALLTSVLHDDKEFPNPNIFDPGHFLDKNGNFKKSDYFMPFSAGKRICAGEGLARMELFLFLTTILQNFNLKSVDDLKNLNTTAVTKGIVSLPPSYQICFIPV
Method: (§3) Then, 10 µl of 10 mM β-NADPH (Oriental Yeast Co., Ltd., Tokyo, Japan) was added, mixed, and incubated at 37 °C for 140 min. The reaction was stopped by adding 100 µl of ethanol containing 40 µM BHB as an internal standard into the reactant and mixing vigorously. After centrifugation (15,000 × g, 7 min), 10 µl of the supernatant was analyzed using HPLC–MS/MS (Quattro Premier XE, Waters, Milford, MA, USA). The mass spectrometer used an electrospray ionization source in the positive ion mode with multiple reaction monitoring. The analytical column was an Inertsil ODS-4 (2.1 mm i.d. × 100 mm, 3 µm) (GL Sciences Inc., Tokyo, Japan). The mobile phase was delivered using a linear gradient elution system consisting of 0.5% formic acid (A): acetonitrile containing 0.5% formic acid (B), at a flow rate of 0.2 ml/min, with the following gradient profile: 40% B (0 min), increasing from 40 to 70% (0–6 min), and 70% B (6–8 min).

CYP3A4 = CYP3A4 (Homo sapiens, UniProt P08684); assay: Inhibition of paclitaxel metabolism in human liver microsome fraction: 3'-p-hydroxypaclitaxel production; conditions: human liver microsomes
Sequence of CYP3A4 (P08684 whole entry): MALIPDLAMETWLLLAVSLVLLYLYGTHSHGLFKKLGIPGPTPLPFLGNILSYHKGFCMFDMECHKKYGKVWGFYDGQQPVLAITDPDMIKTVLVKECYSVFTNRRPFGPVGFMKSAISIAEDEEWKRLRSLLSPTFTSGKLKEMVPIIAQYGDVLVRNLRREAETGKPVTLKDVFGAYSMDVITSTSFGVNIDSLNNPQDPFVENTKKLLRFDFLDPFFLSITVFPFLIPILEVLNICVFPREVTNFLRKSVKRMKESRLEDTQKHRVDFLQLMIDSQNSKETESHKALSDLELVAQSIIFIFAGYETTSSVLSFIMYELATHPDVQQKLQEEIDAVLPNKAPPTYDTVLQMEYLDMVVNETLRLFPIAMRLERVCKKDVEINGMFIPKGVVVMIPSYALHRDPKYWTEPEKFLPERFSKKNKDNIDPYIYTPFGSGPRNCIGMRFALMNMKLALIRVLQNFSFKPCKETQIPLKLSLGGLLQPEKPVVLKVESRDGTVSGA
Method: as §3

[4] = set-up: method as in PMID 30974202; conditions: rats, oral extract of processed Aconite root 1 g/kg as original crude drug; cited from earlier work
[5] = any concentration from 0.050 to 50 µM
[6] = human, pH 7.4, probe paclitaxel (6α-hydroxypaclitaxel formation)

Compound: CO[C@H]1/C=C/O[C@@]2(C)Oc3c(C)c(O)c4c(O)c(c(/C=N/N5CCN(C)CC5)c(O)c4c3C2=O)NC(=O)/C(C)=C\C=C\[C@H](C)[C@H](O)[C@@H](C)[C@@H](O)[C@@H](C)[C@H](OC(C)=O)[C@@H]1C [Rifampicin, rifampicin]
effect on CYP2C8 mRNA expression (CYP2C8 [1]): significantly induced
effect on production of 6α-hydroxypaclitaxel by human hepatocytes (CYP2C8 [2]): significantly induced

Compound: O=c1c(O)c(-c2ccc(O)c(O)c2)oc2cc(O)cc(O)c12 [quercetin]
activity at 140 min, 0.3 µM (CYP2C8 [3]; [6]): 49%
activity at 140 min, 3 µM (CYP2C8 [3]; [6]): 29%

Compound: neoline
induction ratio of 3'-p-hydroxypaclitaxel production (CYP3A4; at 5 µM): less than 10%
effect on production of 3'-p-hydroxypaclitaxel (CYP3A4; at 5.0 µM): significantly induced
effect on production of 3'-p-hydroxypaclitaxel (CYP3A4; at 50 µM): significantly inhibited
maximum blood concentration of neoline [4]: approximately 80 nM
induction ratio of 6α-hydroxypaclitaxel production (CYP2C8 [3]; at 5 µM): less than 10%
effect on production of 6α-hydroxypaclitaxel (CYP2C8 [3]; at 5.0 µM): significantly induced

Second part, the compound after the results:

effect on production of 6α-hydroxypaclitaxel (CYP2C8 [3]; at 50 µM): significantly induced
Compound: OC[C@H]1O[C@@H](O[C@@H]2OC=C[C@H]3[C@H](O)[C@@H]4O[C@]4(CO)[C@@H]23)[C@H](O)[C@@H](O)[C@@H]1O [catalpol]

effect on production of 3'-p-hydroxypaclitaxel (CYP3A4; at 50 µM): induced
effect on production of 6α-hydroxypaclitaxel (CYP2C8 [3]; at 50 µM): significantly induced
Compound: O=C(O)C1=CO[C@@H](O[C@@H]2O[C@H](CO)[C@@H](O)[C@H](O)[C@H]2O)[C@@H]2C(CO)=CC[C@H]12 [geniposidic acid]

effect on production of 6α-hydroxypaclitaxel (CYP2C8 [3]; at 50 µM): significantly induced
Compound: COC(=O)C1=CO[C@@H](O[C@@H]2O[C@H](CO)[C@@H](O)[C@H](O)[C@H]2O)[C@@H]2[C@@H](C)[C@@H](O)C[C@H]12 [loganin]

effect on paclitaxel metabolism (3'-p-hydroxypaclitaxel production) (CYP3A4; [5]): did not affect
effect on paclitaxel metabolism (6α-hydroxypaclitaxel production) (CYP2C8 [3]; [5]): did not affect
Compound: C[C@@]12C[C@@]3(O)O[C@@H](O1)[C@]1(COC(=O)c4ccccc4)[C@H]3C[C@@]12O[C@@H]1O[C@H](CO)[C@@H](O)[C@H](O)[C@H]1O [paeoniflorin]
